Experimental data taken from the supplement of paper PMC11208160.

Assay: recombinant UMI read abundance after kanamycin selection (control-corrected) (log10(CPM+1)); higher = more efficient recombination; extreme values may be limits of the assay; sequences stand for … in AGTGCAGAGAAAATCGGCCAGTTTTCTCTGCCTGCAGTCCGCATGCCGTGGGACCCCTTGGGTTCTAACCTGTTGCCTAGATTTATGCAGCGGACTGCCTTTCTCCCAAAGTGATAAACCGG…AGGTTGGTTTCACT; site = the 11-nt donor
How it was run: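 Reported values are log10(CPM+1) from a pooled Escherichia coli screen of donor and donor-binding-loop pairs for the IS621 bridge recombinase. Selection used IPTG (0.07 mM) plus kanamycin, against unselected plating, each in two replicates. Recombinant UMIs were amplified across the donor–target junction, sequenced, converted to CPM, averaged over replicates and scaled by control-derived factors.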
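Further: IS621 bridge recombinase in Escherichia coli cells against a fixed T5 target plasmid.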

Point of comparison: “CTACTCTCATGGACCGGTTTTCCCGGTAATCCGTATTTGTA (site CTGCTCTCTTA)”, “recombinant UMI read abundance (log10)” value 1.32. Against it:
- CGTGGAACATGGACCGGTTTTCCCGGTAATCCGTATTTGCT (site CGTGGAACTAA) — lower, 0.202
- CGTGGAACATGGACCGGTTTTCCCGGTAATCCGTATTTGCT (site CGTGGAACTAC) — lower, 0.00778
- CGTGGAACATGGACCGGTTTTCCCGGTAATCCGTATTTGCT (site CGTGGAACTAG) — higher, 2.18
- CGTGGAACATGGACCGGTTTTCCCGGTAATCCGTATTTGCT (site CGTGGAACTAT) — lower, 0.45
- CGTGGAACATGGACCGGTTTTCCCGGTAATCCGTATTTGTA (site CGTGGAACTAA) — lower, 0.00446
- CGTGGAACATGGACCGGTTTTCCCGGTAATCCGTATTTGTA (site CGTGGAACTCA) — lower, 0.0215
- CGTGGAACATGGACCGGTTTTCCCGGTAATCCGTATTTGTA (site CGTGGAACTGA) — lower, 0
- CGTGGAACATGGACCGGTTTTCCCGGTAATCCGTATTTGTA (site CGTGGAACTTA) — higher, 2.24
- CGTGTTACATGGACCGGTTTTCCCGGTAATCCGTATTTGAT (site CGTGTTACTAT) — lower, 0.962
- CGTTAAACATGGACCGGTTTTCCCGGTAATCCGTATTTGAG (site CGTTAAACTCT) — within 0.2 log units, 1.31
- CGTTAAACATGGACCGGTTTTCCCGGTAATCCGTATTTGAG (site CGTTACACTCT) — lower, 0
- CGTTAAACATGGACCGGTTTTCCCGGTAATCCGTATTTGAG (site CGTTAGACTCT) — lower, 0.00692
- CGTTAAACATGGACCGGTTTTCCCGGTAATCCGTATTTGAG (site CGTTATACTCT) — lower, 0.01
- CGTTAGACATGGACCGGTTTTCCCGGTAATCCGTATTTGAA (site CGTTAGACTAT) — lower, 0.0102
- CGTTAGACATGGACCGGTTTTCCCGGTAATCCGTATTTGAA (site CGTTAGACTCT) — lower, 0.00762
- CGTTAGACATGGACCGGTTTTCCCGGTAATCCGTATTTGAA (site CGTTAGACTGT) — lower, 0
- CGTTAGACATGGACCGGTTTTCCCGGTAATCCGTATTTGAA (site CGTTAGACTTT) — within 0.2 log units, 1.33
- CGTTAGGCATGGACCGGTTTTCCCGGTAATCCGTATTTGCT (site CGTTAGGCTAG) — lower, 0.924
- CGTTAGGCATGGACCGGTTTTCCCGGTAATCCGTATTTGCT (site CGTTCGGCTAG) — lower, 0.00474
- CGTTAGGCATGGACCGGTTTTCCCGGTAATCCGTATTTGCT (site CGTTGGGCTAG) — lower, 0
- CGTTAGGCATGGACCGGTTTTCCCGGTAATCCGTATTTGCT (site CGTTTGGCTAG) — lower, 0.00436
- CGTTCGGCATGGACCGGTTTTCCCGGTAATCCGTATTTGTC (site CGTTCGGCTGA) — lower, 0
- CGTTGCACATGGACCGGTTTTCCCGGTAATCCGTATTTGGG (site CGTTGCACTCC) — lower, 0.0529
- CGTTGGACATGGACCGGTTTTCCCGGTAATCCGTATTTGAG (site CGTTAGACTCT) — lower, 0.878
- CGTTGGACATGGACCGGTTTTCCCGGTAATCCGTATTTGAG (site CGTTCGACTCT) — lower, 0.022
- CGTTGGACATGGACCGGTTTTCCCGGTAATCCGTATTTGAG (site CGTTGGACTCT) — within 0.2 log units, 1.36
- CGTTGGACATGGACCGGTTTTCCCGGTAATCCGTATTTGAG (site CGTTTGACTCT) — lower, 0.0464
- CGTTGTCCATGGACCGGTTTTCCCGGTAATCCGTATTTGCT (site CGTTGTCCTAG) — lower, 0.968
- CGTTGTTCATGGACCGGTTTTCCCGGTAATCCGTATTTGTA (site CGTTGTTCTTA) — higher, 2.19
- CGTTTGGCATGGACCGGTTTTCCCGGTAATCCGTATTTGAT (site CGTTTGGCTAA) — lower, 0.0113
- CGTTTGGCATGGACCGGTTTTCCCGGTAATCCGTATTTGAT (site CGTTTGGCTAC) — lower, 0.0714
- CGTTTGGCATGGACCGGTTTTCCCGGTAATCCGTATTTGAT (site CGTTTGGCTAG) — lower, 1.09
- CGTTTGGCATGGACCGGTTTTCCCGGTAATCCGTATTTGAT (site CGTTTGGCTAT) — higher, 2.22
- CTAAACTCATGGACCGGTTTTCCCGGTAATCCGTATTTGAA (site CTAAACTCTTT) — higher, 3.08
- CTAACCCCATGGACCGGTTTTCCCGGTAATCCGTATTTGTA (site CTAACCCCTTA) — higher, 1.67
- CTAACCGCATGGACCGGTTTTCCCGGTAATCCGTATTTGTT (site CTAACCGCTAA) — higher, 1.6
- CTAACTTCATGGACCGGTTTTCCCGGTAATCCGTATTTGCA (site CTAACTTCTTG) — higher, 2.08
- CTAAGGGCATGGACCGGTTTTCCCGGTAATCCGTATTTGAT (site CTAAGGGCTAT) — higher, 2.15
- CTAATATCATGGACCGGTTTTCCCGGTAATCCGTATTTGAC (site CTAATATCTGT) — higher, 2.69
- CTAATATCATGGACCGGTTTTCCCGGTAATCCGTATTTGAC (site CTACTATCTGT) — lower, 0
- CTAATATCATGGACCGGTTTTCCCGGTAATCCGTATTTGAC (site CTAGTATCTGT) — higher, 2.29
- CTAATATCATGGACCGGTTTTCCCGGTAATCCGTATTTGAC (site CTATTATCTGT) — within 0.2 log units, 1.3
- CTAATATCATGGACCGGTTTTCCCGGTAATCCGTATTTGAG (site CTAATATCTCT) — higher, 3.07
- CTAATATCATGGACCGGTTTTCCCGGTAATCCGTATTTGAG (site CTAGTATCTGT) — lower, 0
- CTAATGACATGGACCGGTTTTCCCGGTAATCCGTATTTGAT (site CTAATGACTAT) — higher, 1.69
- CTAATGACATGGACCGGTTTTCCCGGTAATCCGTATTTGCA (site CTAATGACTTG) — higher, 2.01
- CTACCAACATGGACCGGTTTTCCCGGTAATCCGTATTTGGA (site CTACAAACTTC) — lower, 0
- CTACCAACATGGACCGGTTTTCCCGGTAATCCGTATTTGGA (site CTACCAACTTC) — lower, 0.959
- CTACCAACATGGACCGGTTTTCCCGGTAATCCGTATTTGGA (site CTACGAACTTC) — lower, 0
- CTACCAACATGGACCGGTTTTCCCGGTAATCCGTATTTGGA (site CTACTAACTTC) — lower, 0.0192
- CTACCATCATGGACCGGTTTTCCCGGTAATCCGTATTTGCT (site CGATCATCTAG) — lower, 0
- CTACCATCATGGACCGGTTTTCCCGGTAATCCGTATTTGCT (site CTACCATCTAG) — higher, 2.35
- CTACCCGCATGGACCGGTTTTCCCGGTAATCCGTATTTGCT (site CTACCCGCTAG) — within 0.2 log units, 1.43
- CTACGCACATGGACCGGTTTTCCCGGTAATCCGTATTTGAG (site CTACGCACTCT) — within 0.2 log units, 1.29
- CTACGCTCATGGACCGGTTTTCCCGGTAATCCGTATTTGAT (site CTACGCTCTAT) — higher, 2.86
- CTACTAACATGGACCGGTTTTCCCGGTAATCCGTATTTGTA (site CTACTAACTTA) — higher, 2.03
- CTACTAACATGGACCGGTTTTCCCGGTAATCCGTATTTGTA (site CTACTAACTTC) — lower, 0.53
- CTACTAACATGGACCGGTTTTCCCGGTAATCCGTATTTGTA (site CTACTAACTTG) — within 0.2 log units, 1.51
- CTACTAACATGGACCGGTTTTCCCGGTAATCCGTATTTGTA (site CTACTAACTTT) — higher, 1.92
- CTACTCACATGGACCGGTTTTCCCGGTAATCCGTATTTGGG (site CTACTCACTCC) — lower, 0.286
- CTACTCCCATGGACCGGTTTTCCCGGTAATCCGTATTTGGC (site CTACTCCCTGC) — higher, 1.59
- CTACTCTCATGGACCGGTTTTCCCGGTAATCCGTATTTGTA (site CTACTCTCTTA) — higher, 3.26
- CTACTCTCATGGACCGGTTTTCCCGGTAATCCGTATTTGTA (site CTCCTCTCTTA) — within 0.2 log units, 1.19
- CTACTCTCATGGACCGGTTTTCCCGGTAATCCGTATTTGTA (site CTTCTCTCTTA) — within 0.2 log units, 1.42
- CTACTGTCATGGACCGGTTTTCCCGGTAATCCGTATTTGTA (site CTACTGTCTTA) — higher, 3.13
- CTAGGTACATGGACCGGTTTTCCCGGTAATCCGTATTTGAC (site ATAGGTACTGT) — lower, 0
- CTAGGTACATGGACCGGTTTTCCCGGTAATCCGTATTTGAC (site CTAGGTACTGT) — higher, 2.1
